Experimental data taken from US11999806B2, “Broad-spectrum polypeptide against enterovirus and application thereof” (WUHAN INSTITUTE OF VIROLOGY, CHINESE ACADEMY OF SCIENCES, priority 2018, dated 2024).
“And” between values parts separate entries of the source, which are not always exact repeats. Identical values can stand only once. No end group written: not given here.

Test system: EV71
Experiment: Anti-EV71 efficiency in RD cells, viral RNA by qRT-PCR
Assay type: cell-based, enterovirus 71
Details: for Relative viral RNA amount (%): 24 h, control infected without polypeptide
Procedure: • (1) RD cells were plated in five 100 mm dishes. • (2) After the cells reached 70%-80% confluence, the MEM medium containing 10% serum was replaced with a MEM medium containing 2% serum. […] When the changes were obvious, samples were collected as follows. • (4) The supernatant in the 100 mm dish was transferred into a 15 ml centrifuge tube, and centrifuged at 500 g for 5 min. • (5) The supernatant was transferred into a new 15 ml centrifuge tube, and filtered through 0.22 μm filter membrane with a 50 ml syringe. • (6) RNA was extracted from 100 μl of the supernatant obtained in step (5) and subjected to one step qRT-PCR to measure the virus titer, and the previously extracted virus RNA with known titer was handled together as a control. 3. Measure Antiviral Efficiency of Polypeptide in RD Cells. • (1) Different cells were plated in 24-well cell plates. • (2) After the cells reached 70%-80% confluence, the MEM medium containing 10% serum was replaced with a MEM medium containing 2% serum (0.5 ml/well), and 5 μl of 10^6 PFU/mL EV71 viruses per well were added. • (3) After 1 h, different polypeptides were added at a final concentration of 0.01 μM, 0.1 μM, 1 μM, 10 μM, and 50 μM, respectively. • (4) Samples were collected 24 hours after virus infection, and RNA was extracted with total RNA extraction kit as follows. • (5) The supernatant in the wells was discarded, then 350 μl of TRK Lysis Buffer was added to each well and the plate was shaken on the shaker for 5 minutes. • (6) 350 μl of 70% ethanol (DEPC-treated) was added to the well and the plate was shaken on the shaker for 5 minutes. • (7) The mixture in the well was transferred to a RNA extraction column and centrifuged at 12,000 g for 1 min. • (8) The solution collected in the recovery tube was added back to the column and centrifuged at 12,000 g for 1 min. • (9) RNA washing buffer 1 was added to the column and centrifuged at 12,000 g for 30 s. • (10) RNA washing buffer 2 was added to the column and centrifuged at 12,000 g for 1 min. • (11) Step (10) was repeated once. • (12) The column was centrifuged at 12000 g for 2 min to completely remove residual RNA washing buffer. • (13) 50 μl DEPC-treated H2O was added to the column and centrifuge at 12,000 g for 2 min. • (14) 2 μl RNA sample was used according to one step qRT-PCR kit for fluorescence quantification experiment.
RD cells added with R8 penetrating peptide (sequence: RRRRRRRR) were used as a negative control.
RD cells were used to test the antiviral effect of polypeptide P2. EV71 (MOI=0.1) was added to RD cells at 80% confluence. After 1 hour of infection, polypeptide P2 was added at concentrations of 0.01 μM, 0.1 μM, 1 μM, 10 μM, and 50 μM, respectively. The samples were collected 24 hours later, and the total RNA was extracted. The level of viral genomic RNA was detected by qRT-PCR. The cells infected with the same type virus and added with penetrating peptide R8 were used as a control group.
• (1) RD cells were plated in five 100 mm dishes. • (2) After the cells reached 70%-80% confluence, the MEM medium containing 10% serum was replaced with a MEM medium containing 2% serum. […] When the changes were obvious, samples were collected as follows. • (4) The supernatant in the 100 mm dish was transferred into a 15 ml centrifuge tube, and centrifuged at 500 g for 5 min. • (5) The supernatant was transferred into a new 15 ml centrifuge tube, and filtered through 0.22 μm filter membrane with a 50 ml syringe. • (6) RNA was extracted from 100 μl of the supernatant obtained in step (5) and subjected to one step qRT-PCR to measure the virus titer, and the previously extracted virus RNA with known titer was handled together as a control. 3. […]

Molecule | Relative viral RNA amount (%) (EV71 MOI=0.1, 0.01 μM) | Relative viral RNA amount (%) (EV71 MOI=0.1, 0.1 μM) | Relative viral RNA amount (%) (EV71 MOI=0.1, 1 μM) | IC50 (read-out: IC50 against EV71 by qRT-PCR) [µM]
CCCCCCCCCCCCCCCC(=O)NCCCC[C@H](NC(=O)CCOCCOCCOCCOCCNC(=O)[C@H](CCCCN)NC(=O)[C@H](C)NC(=O)[C@@H]1CCCN1C(=O)[C@@H](NC(=O)[C@@H](NC(=O)[C@H](Cc1c[nH]c2ccccc12)NC(=O)CNC(=O)[C@H](CCC(N)=O)NC(=O)[C@H](CCC(=O)O)NC(=O)[C@H](CCCNC(=N)N)NC(=O)[C@H](CS)NC(=O)[C@H](Cc1ccc(O)cc1)NC(=O)[C@H](CCC(N)=O)NC(=O)[C@H](CCCNC(=N)N)NC(=O)[C@@H](NC(=O)[C@H](CCC(=O)O)NC(=O)[C@@H](N)CCC(=O)O)C(C)C)[C@@H](C)CC)[C@@H](C)CC)C(=O)O [3A-EP-PEG4-PA] | 72.5% and 68.12% and 59.1% | 69.96% and 68.69% and 67.81% | 107.1% and 89.26% and 75.24% | –
CC[C@@H](C)[C@@H](NC(=O)[C@H]1CCCN1C(C)=O)C(=O)N[C@@H](C(=O)N[C@H](Cc1c[nH]c2ccccc12)C(=O)NCC(=O)N[C@H](CCC(N)=O)C(=O)N[C@H](CCC(=O)O)C(=O)N[C@H](CCCNC(=N)N)C(=O)N[C@H](CS)C(=O)N[C@H](Cc1ccc(O)cc1)C(=O)N[C@H](CCC(N)=O)C(=O)N[C@H](CCCNC(=N)N)C(=O)N[C@@H](C(=O)N[C@H](CCC(=O)O)C(=O)N[C@H](CCC(=O)O)C(=O)N1CCC[C@@H]1C(=O)N1CCC[C@@H]1C(=O)N[C@H](CCCNC(=N)N)C(=O)N[C@H](CCCNC(=N)N)C(=O)N[C@H](CCCNC(=N)N)C(=O)N[C@H](CCC(N)=O)C(=O)N[C@H](CCCNC(=N)N)C(=O)N[C@H](CCCNC(=N)N)C(=O)N[C@H](CCCCN)C(=O)N[C@H](CCCCN)C(=O)N[C@H](CCCNC(=N)N)C(=O)NCC(=O)N[C@H](Cc1ccc(O)cc1)C(N)=O)C(C)C)[C@H](C)CC [3A-EP-DRI] | 75.93% and 73.36% and 72.89% | 72.52% and 70.59% and 61.38% | 100.5% and 95.84% and 90.71% | –
RRRRRRRREEVRQYCRDQ [P2] | – | – | – | 6.37
